{"source": "patent US20090221596A1", "about": "“Substtituted aryl oximes” (priority 2006, published 2009)"}
{"system": "Phaedon cochleariae", "assay": "Phaedon test (spray treatment)", "type": "in vivo", "conditions": "500 g a. i./ha, sprayed Chinese cabbage leaves, mustard beetle larvae", "excerpt": "[table] An appropriate preparation of active compound is produced by mixing 1 part by weight of active compound with the stated amounts of solvent and emulsifier and diluting the concentrate to the desired concentration using emulsifier-containing water. Chinese cabbage leaves (Brassica pekinensis) are sprayed with a preparation of active compound at the desired concentration and after they have dried off they are populated with larvae of the mustard beetle (Phaedon cochleariae). After the desired time the activity is measured in %.", "units": {"% 7 d (activity; 100% = all beetle larvae killed)": "%"}}
{"compound": "COc1c(Cl)cc(OCC=C(Cl)Cl)cc1C(=NO)C(C)C", "note": "(racemic) [Example 14, 1-[3-Chloro-5-(3,3-dichloroallyloxy)-2-methoxyphenyl]-2-methylpropan-1-one oxime]", "% 7 d (activity; 100% = all beetle larvae killed)": 100}
{"system": "Spodoptera frugiperda", "assay": "Spodoptera frugiperda test (spray treatment)", "type": "in vivo", "conditions": "foliar, 168 h, 500 g a. i./ha, 7 d, sprayed maize leaf discs, army worm caterpillars, read-out: % 7 d (activity; 100% = all caterpillars killed)", "excerpt": "An appropriate preparation of active compound is produced by mixing 1 part by weight of active compound with the stated amounts of solvent and emulsifier and diluting the concentrate to the desired concentration using emulsifier-containing water.\nMaize leaf discs (Zea mays) are sprayed with a preparation of active compound at the desired concentration and after they have dried off they are populated with caterpillars of the army worm (Spodoptera frugiperda).\nAfter the desired time the activity is measured in %. Here 100% means that all of the caterpillars have been killed; 0% means that no caterpillar has been killed.", "units": {"pest or weed control at 500 g/ha": "%"}}
{"compound": "COc1c(Cl)cc(OCC=C(Cl)Cl)cc1/C(C)=N/OCCCCOc1ncc(C(F)(F)F)cc1Cl", "note": "[Example 23]", "pest or weed control at 500 g/ha": 100}
{"compound": "COc1c(Cl)cc(OCC=C(Cl)Cl)cc1/C(C)=N/OCCc1ccc([N+](=O)[O-])cc1", "note": "[Example 39]", "pest or weed control at 500 g/ha": 100}
{"compound": "COc1c(Cl)cc(OCC=C(Cl)Cl)cc1/C(C)=N/OC(C)c1ccccc1", "note": "(centres unmarked) [Example 45]", "pest or weed control at 500 g/ha": 83}
{"compound": "COc1c(Cl)cc(OCC=C(Cl)Cl)cc1/C(C)=N/OCc1ccc(F)c(Oc2ccccc2)c1", "note": "[Example 30]", "pest or weed control at 500 g/ha": 100}
{"compound": "COc1c(Cl)cc(OCC=C(Cl)Cl)cc1/C(C)=N/OCCc1ccc(NC(=O)C2(C)CC2)cc1", "note": "[Example 40]", "pest or weed control at 500 g/ha": 100}
{"compound": "COc1c(Cl)cc(OCC=C(Cl)Cl)cc1/C(C)=N/OCCOc1ccc(C(F)(F)F)cn1", "note": "[Example 21]", "pest or weed control at 500 g/ha": 100}
{"compound": "COc1c(Cl)cc(OCC=C(Cl)Cl)cc1/C(C)=N/OCCCc1ccc(F)cc1", "note": "[Example 42]", "pest or weed control at 500 g/ha": 100}
{"compound": "COc1c(Cl)cc(OCC=C(Cl)Cl)cc1/C(C)=N/OCc1ccc(Oc2ccc(SC)cc2)cc1", "note": "[Example 49]", "pest or weed control at 500 g/ha": 100}
{"compound": "COc1c(Cl)cc(OCC=C(Cl)Cl)cc1/C(C)=N/OCCCCOc1ccc(C(F)(F)F)cn1", "note": "[Example 22]", "pest or weed control at 500 g/ha": 100}
{"compound": "COc1c(Cl)cc(OCC=C(Cl)Cl)cc1/C(C)=N/OCc1ccc(OC(F)(F)F)cc1", "note": "[Example 29]", "pest or weed control at 500 g/ha": 100}
{"compound": "COc1c(Cl)cc(OCC=C(Cl)Cl)cc1/C(C)=N/OCCCCOc1c(Cl)cc(C(F)(F)F)cc1Cl", "note": "[Example 24]", "pest or weed control at 500 g/ha": 100}
{"compound": "COc1c(Cl)cc(OCC=C(Cl)Cl)cc1/C(C)=N/OCCc1ccc(NC(=O)OC(C)(C)C)cc1", "note": "[Example 41]", "pest or weed control at 500 g/ha": 100}
{"system": "Aedes Aegypti", "assay": "Aedes Aegypti test", "type": "in vivo", "conditions": "20 g a. i./ha, third larval stage (L3)", "experimental": "An appropriate preparation of active compound is produced by mixing the active compound with the stated amounts of solvent and diluting the concentrate to the desired concentration with water.\nThe Aedsae aegypti larvae (third larval stage, L3) are treated with a preparation of active compound at the desired concentration.\nAfter the desired time the activity is measured in %. Here 100%, means that all of the Aedsae aegypti have been killed; 0% means that no Aedsae aegypti have been killed, and -1 denotes that no evaluation was possible.", "units": {"% 2 d (activity; 100% = all Aedes aegypti killed)": "%"}}
{"compound": "COc1c(Cl)cc(OCC=C(Cl)Cl)cc1C(=NO)C(C)C", "note": "(racemic) [Example 14, 1-[3-Chloro-5-(3,3-dichloroallyloxy)-2-methoxyphenyl]-2-methylpropan-1-one oxime]", "% 2 d (activity; 100% = all Aedes aegypti killed)": 80}
